Laboratory results from US8207293B2, “Peptides derived from maurocalcine used as vectors for intracellular addressing of molecules of interest” (Commissariat a l'Energie Atomique, priority 2004, dated 2012).

What was measured:
RyR1 receptor = biological target: T1, RyR1 receptor (Oryctolagus cuniculus, UniProt P11716); experiment: Ca2+ release by heavy sarcoplasmic reticulum vesicles (antipyrylazo III); type: biochemical; details: 100 nM complex
T1 construct: from tissue; host or cells: heavy sarcoplasmic reticulum vesicles (skeletal muscle implied)
T1 sequence (P11716 whole entry): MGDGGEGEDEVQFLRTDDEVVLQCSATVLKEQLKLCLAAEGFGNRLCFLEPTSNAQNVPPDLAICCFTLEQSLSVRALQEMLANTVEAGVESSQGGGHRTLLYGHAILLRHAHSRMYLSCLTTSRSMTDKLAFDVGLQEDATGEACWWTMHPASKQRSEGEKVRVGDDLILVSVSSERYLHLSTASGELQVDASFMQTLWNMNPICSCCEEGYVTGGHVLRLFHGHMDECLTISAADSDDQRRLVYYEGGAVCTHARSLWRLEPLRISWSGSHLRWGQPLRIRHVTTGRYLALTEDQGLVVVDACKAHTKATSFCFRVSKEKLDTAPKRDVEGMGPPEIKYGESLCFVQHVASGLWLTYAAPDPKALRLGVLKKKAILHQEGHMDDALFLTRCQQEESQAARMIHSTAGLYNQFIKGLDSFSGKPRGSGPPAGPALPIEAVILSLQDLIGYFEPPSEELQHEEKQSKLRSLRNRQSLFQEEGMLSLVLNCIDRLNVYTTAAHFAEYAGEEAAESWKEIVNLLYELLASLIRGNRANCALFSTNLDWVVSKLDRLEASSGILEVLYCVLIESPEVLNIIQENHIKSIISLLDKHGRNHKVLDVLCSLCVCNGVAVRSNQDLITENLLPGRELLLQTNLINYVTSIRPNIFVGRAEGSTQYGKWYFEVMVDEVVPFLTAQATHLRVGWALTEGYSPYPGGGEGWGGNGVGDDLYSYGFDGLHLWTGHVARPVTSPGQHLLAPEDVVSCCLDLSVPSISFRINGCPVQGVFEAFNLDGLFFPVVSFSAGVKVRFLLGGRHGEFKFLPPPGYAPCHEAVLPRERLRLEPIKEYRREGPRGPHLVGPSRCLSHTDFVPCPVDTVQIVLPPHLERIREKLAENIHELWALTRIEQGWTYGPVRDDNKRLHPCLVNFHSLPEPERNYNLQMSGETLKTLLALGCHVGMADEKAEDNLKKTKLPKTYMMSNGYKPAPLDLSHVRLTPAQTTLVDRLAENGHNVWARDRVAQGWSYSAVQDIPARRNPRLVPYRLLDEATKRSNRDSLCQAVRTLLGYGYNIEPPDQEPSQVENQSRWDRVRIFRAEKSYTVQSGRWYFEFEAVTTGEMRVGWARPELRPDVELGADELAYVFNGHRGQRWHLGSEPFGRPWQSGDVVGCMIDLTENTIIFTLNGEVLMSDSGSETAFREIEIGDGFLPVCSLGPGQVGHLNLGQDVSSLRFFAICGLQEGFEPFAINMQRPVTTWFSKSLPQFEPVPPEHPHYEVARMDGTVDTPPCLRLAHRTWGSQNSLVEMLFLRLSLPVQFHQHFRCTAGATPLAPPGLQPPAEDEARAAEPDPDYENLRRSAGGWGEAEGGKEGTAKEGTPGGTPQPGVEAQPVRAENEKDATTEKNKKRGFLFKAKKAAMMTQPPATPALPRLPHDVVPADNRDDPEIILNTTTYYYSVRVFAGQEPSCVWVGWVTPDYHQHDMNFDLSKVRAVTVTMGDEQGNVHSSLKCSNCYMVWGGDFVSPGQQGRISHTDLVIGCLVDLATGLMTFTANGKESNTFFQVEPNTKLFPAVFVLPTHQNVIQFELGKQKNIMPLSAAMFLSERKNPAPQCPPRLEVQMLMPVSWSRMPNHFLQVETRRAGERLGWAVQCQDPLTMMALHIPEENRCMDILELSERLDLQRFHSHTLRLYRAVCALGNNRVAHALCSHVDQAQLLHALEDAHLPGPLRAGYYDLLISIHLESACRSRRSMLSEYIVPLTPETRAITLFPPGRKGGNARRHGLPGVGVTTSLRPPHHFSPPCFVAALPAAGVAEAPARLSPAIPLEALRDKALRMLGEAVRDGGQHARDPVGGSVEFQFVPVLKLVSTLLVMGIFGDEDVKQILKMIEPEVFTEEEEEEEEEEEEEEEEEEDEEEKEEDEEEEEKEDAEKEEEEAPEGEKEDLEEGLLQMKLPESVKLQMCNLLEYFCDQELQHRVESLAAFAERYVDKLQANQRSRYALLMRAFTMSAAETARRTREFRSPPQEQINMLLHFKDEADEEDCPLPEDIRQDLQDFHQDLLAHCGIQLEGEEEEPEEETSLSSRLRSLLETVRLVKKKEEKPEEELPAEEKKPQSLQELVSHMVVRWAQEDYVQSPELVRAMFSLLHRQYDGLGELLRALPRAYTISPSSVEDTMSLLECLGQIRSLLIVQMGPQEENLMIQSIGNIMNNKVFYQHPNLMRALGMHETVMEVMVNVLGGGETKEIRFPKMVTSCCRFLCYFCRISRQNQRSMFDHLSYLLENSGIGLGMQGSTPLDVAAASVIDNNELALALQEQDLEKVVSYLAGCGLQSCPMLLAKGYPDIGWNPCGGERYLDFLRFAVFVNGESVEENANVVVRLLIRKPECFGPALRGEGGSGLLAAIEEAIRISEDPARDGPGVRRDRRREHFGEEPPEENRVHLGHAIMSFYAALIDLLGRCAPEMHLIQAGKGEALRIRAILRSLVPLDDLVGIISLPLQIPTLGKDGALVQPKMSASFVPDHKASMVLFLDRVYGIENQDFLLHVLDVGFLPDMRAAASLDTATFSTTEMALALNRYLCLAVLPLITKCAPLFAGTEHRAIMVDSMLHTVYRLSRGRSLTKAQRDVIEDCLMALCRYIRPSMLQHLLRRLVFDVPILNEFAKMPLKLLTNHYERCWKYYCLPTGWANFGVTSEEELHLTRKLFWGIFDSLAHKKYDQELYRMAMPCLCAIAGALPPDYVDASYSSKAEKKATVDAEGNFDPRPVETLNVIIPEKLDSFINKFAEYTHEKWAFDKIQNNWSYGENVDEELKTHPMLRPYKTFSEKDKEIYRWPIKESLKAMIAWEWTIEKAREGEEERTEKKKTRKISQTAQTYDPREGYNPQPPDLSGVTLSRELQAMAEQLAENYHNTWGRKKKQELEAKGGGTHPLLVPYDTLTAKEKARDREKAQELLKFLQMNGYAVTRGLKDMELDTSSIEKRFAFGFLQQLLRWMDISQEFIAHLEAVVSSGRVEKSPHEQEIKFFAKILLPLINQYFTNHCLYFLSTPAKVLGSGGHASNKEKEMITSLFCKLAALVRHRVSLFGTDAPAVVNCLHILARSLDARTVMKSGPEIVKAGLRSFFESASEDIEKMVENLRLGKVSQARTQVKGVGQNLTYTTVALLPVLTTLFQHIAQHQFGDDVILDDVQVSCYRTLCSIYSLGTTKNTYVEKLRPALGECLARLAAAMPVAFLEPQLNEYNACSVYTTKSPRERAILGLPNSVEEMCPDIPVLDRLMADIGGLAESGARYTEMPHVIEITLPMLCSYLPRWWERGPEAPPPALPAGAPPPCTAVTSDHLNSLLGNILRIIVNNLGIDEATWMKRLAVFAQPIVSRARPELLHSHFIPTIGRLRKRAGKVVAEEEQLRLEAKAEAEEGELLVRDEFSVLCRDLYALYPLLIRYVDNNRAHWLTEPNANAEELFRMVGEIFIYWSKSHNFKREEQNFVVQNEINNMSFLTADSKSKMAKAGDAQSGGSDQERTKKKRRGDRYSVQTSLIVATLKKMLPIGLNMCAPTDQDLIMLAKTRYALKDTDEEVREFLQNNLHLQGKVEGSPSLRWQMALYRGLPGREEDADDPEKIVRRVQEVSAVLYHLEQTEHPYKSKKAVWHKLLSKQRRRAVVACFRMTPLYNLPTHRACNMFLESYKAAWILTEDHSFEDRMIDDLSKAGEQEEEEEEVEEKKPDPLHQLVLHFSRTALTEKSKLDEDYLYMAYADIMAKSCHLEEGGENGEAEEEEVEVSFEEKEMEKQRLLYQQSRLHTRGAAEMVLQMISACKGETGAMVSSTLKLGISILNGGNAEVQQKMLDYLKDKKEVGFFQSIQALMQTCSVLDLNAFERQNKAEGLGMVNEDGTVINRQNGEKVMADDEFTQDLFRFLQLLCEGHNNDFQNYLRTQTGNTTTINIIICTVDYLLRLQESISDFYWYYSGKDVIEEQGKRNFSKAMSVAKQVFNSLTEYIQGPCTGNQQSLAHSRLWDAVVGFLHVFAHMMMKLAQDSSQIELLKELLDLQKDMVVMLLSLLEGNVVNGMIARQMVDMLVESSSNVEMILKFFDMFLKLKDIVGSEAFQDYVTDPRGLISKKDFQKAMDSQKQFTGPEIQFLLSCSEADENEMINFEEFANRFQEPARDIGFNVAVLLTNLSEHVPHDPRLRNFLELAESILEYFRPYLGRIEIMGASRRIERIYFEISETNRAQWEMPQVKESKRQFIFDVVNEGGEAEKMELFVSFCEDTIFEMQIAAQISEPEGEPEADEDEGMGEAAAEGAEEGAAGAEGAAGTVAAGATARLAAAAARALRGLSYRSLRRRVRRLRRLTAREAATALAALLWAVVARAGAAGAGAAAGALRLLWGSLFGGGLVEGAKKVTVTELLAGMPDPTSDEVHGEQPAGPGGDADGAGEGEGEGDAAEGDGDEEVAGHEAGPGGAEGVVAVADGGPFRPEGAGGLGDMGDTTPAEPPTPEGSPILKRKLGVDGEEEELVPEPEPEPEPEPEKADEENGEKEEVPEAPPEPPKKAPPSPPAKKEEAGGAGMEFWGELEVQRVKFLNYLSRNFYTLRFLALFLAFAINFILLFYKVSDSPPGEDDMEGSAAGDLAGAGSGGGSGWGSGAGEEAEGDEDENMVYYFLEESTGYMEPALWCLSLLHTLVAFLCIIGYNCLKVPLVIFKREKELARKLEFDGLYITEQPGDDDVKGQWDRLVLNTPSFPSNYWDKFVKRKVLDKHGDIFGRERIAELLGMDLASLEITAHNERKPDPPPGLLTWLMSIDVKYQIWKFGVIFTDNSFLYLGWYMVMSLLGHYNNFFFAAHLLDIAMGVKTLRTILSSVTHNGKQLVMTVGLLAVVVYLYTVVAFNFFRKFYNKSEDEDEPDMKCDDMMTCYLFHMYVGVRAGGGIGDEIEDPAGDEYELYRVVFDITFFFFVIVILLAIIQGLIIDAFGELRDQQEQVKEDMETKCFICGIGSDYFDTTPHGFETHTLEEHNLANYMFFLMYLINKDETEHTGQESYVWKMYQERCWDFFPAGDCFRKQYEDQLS
Experimental: The heavy sarcoplasmic reticulum vesicles are prepared according to the method of Kim et al. (J. Biol. Chem., 1983, 258, 9662-9668) modified as described in Marty et al. (J. Biol. Chem., 2000, 275, 8206-8212). The protein concentration is measured by the Biuret method.
The Ca^2+ release by the heavy sarcoplasmic reticulum vesicles was measured using a Ca^2+-sensitive dye, antipyrylazo III. The absorbance was measured at 710 nm, using a diode-array spectrophotometer (MOS-200, Optical System, BIOLOGIC). The heavy sarcoplasmic reticulum vesicles (50 μg) were actively loaded with Ca^2+, at 37° C., in 2 ml of buffer containing 100 mM KCl, 7.5 mM sodium pyrophosphate, 20 mM MOPS, pH 7.0, to which 250 μM of antipyrylazo III, 1 mM ATP/MgCl2, 5 mM phosphocreatine and 12 μg/ml of creatine phosphokinase had been added (Palade, J. Biol. Chem., 1987, 262, 6142-6148).
The calcium loading begins with sequential additions of 50 μM and 20 μM CaCl2.
Under these loading conditions, no calcium-induced calcium release interferes with the observations. At the end of each experiment, the Ca^2+ remaining in the vesicles is measured by the addition of 4 μM of Ca^2+ ionophore, […] (Sigma), and the absorbance signal is calibrated by means of two consecutive additions of 20 μM CaCl2.

HEK293 cells = experiment: Flow cytometry analysis of cellular penetration of complexes (trypsin/heparin treatment); type: cell-based, human; details: 10 nM to 1 μM complexes
Experimental: The cells are incubated with maurocalcine and the derived peptides, biotinylated and complexed with […], at the final concentration of 100 nM in PBS, in the dark and at ambient temperature for 1 hour. After 2 washes in PBS (PBS, in mM: […], 6.84 Na2HPO4, 3.16 NaH2PO4, pH 7.2), and the cells were treated with trypsin (1 mg/ml, INVITROGEN), for 10 min at 37° C., in order to remove the extracellular complexes and the plasma-membrane-bound complexes. After the incubation with trypsin, the cell suspension was centrifuged at 500 g and the cells were resuspended in PBS containing 1 μg/ml of propidium iodide (SIGMA). […] The analysis was carried out on live cells, using a flow cytometer (FACScalibur, BECTON DICKINSON). The data were recorded and analyzed using appropriate software (CellQuest, BD BIOSCIENCES). The live cells were sorted according to their size and their granulosity (forward/side scattering), over a total of 10 000 events.
The analysis is carried out as described in Example 1. For the heparin treatment experiments, the complexes were prepared in a heparin solution (bovine intestine heparin, sodium salt, SIGMA) and the cells were washed twice with the heparin solution, before and after incubation with the complexes prepared in the same heparin solution.
The cellular penetration was analyzed by flow cytometry, on cells incubated with the MCab/Strept-Cy3 complexes, and then treated with trypsin, so as to remove the complexes bound to the plasma membrane by means of lipids, specific receptors or heparan sulfate glycosaminoglycan (HPSG). It has been shown that this method makes it possible to effectively study the entry of penetrating peptides into cells (Richard et al., J. Biol. Chem., 2003, 278, 585-590).

[1] = system: undifferentiated L6 cells; experiment: Penetration kinetics in live undifferentiated L6 cells, confocal microscopy; type: cell-based, rat
Experimental: The L6 rat myogenic cell line (clone C5, EACC) is cultured in DMEM medium supplemented with 15% fetal bovine serum (LIFE TECHNOLOGIES) and 1% penicillin-streptomycin (Invitrogen).
The live cells were incubated with maurocalcine and the derived peptides, biotinylated and complexed with streptavidin-cyanin 3, at the final concentration of 100 nM in PBS, at ambient temperature in freshly changed culture medium, on the platform of an upright microscope (Nikon Eclipse 600 FN, equipped with a water-immersion objective (×40); aperture 0.8) and a confocal head (Nikon PCM 2000), or else with a Leica TCS-SP2 microscope, equipped with an objective (×100), according to the “XYZt” mode.
The penetration kinetics of the maurocalcine and of the derived peptides, biotinylated in complex with streptavidin-Cy3, was initiated by injecting 100 nM of the complex into the culture medium. The Cy3 fluorescence was excited by means of a 543 nm wavelength of an […] laser. The light emission was filtered (595±35 nm filter). The images were recorded and analyzed using the EZ2000 software (Nikon). The quantitative analysis of the relative fluorescence was carried out on the overall signal of all the cells, using appropriate software (Leica).

MCab/Strept-Cy3: biotinylated maurocalcine, complexed with cyanin-3-labeled streptavidin
efficiency of Ca2+ release in comparison with maurocalcine alone (RyR1 receptor): slightly reduced efficiency
induction of Ca2+ release from sarcoplasmic reticulum vesicles (RyR1 receptor): induce Ca^2+ release
saturability of penetration (HEK293 cells): cannot be saturated
time of fluorescence peak in the plasma membrane (ROI-1) ([1]; 100 nM): 10 min
time at which labeling appears after addition ([1]; 100 nM in extracellular medium): 3 min
